Measured values reported in patent US11021479B2, “Pyridoquinazoline derivatives useful as protein kinase inhibitors” (ONCOSTELLAE, S.L., priority 2017, dated 2021).

How the values were obtained:
Type in all cases: biochemical
TYK2 = target: T1, TYK2 (Homo sapiens, UniProt P29597); assay: Functional assay of protein Janus kinases (Caliper mobility shift), TYK2; settings: ATP 20 μM, incubation 45 min; read-out: TYK2 enzymatic activity (IC50) score
T1 construct: purchased Carna Biosciences 08-147
T1 sequence (P29597 871-1187 limits assumed): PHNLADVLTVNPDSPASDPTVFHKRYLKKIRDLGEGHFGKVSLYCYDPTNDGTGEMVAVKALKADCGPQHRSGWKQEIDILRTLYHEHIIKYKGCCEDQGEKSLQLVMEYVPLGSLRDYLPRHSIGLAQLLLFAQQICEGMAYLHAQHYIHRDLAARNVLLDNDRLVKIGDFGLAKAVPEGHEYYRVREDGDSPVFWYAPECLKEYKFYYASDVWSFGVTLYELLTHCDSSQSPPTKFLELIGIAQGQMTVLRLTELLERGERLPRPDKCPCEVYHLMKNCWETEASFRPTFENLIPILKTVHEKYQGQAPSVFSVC
Protocol: (§1) The functional assays of protein Janus kinases were carried out in 384-well plates using a final volume of 30 μl. […] The reaction was reads in a “Caliper EzReader LabChip 3000” (Caliper, Hopkinton, Mass.) reader, based on electrophoretic mobility of the fluorescent substrate and the phosphorylated product.
(§2) The inhibition percentages were calculated by comparison between control reactions, for 100% of inhibition and reactions with only DMSO for 0% of inhibition.

Human ARK5/NUAK1 = target: T2, Human ARK5/NUAK1 (Homo sapiens, UniProt O60285); assay: ARK5 activity inhibition test (Reaction Biology kit, 33P-ATP filter assay); settings: ATP 10 μM, peptide substrate 20 μM, 120 min; read-out: ARK5 enzymatic activity (IC50) score
T2 construct: purchased Reaction Biology ARK5/NUAK1
T2 sequence (O60285 1-661): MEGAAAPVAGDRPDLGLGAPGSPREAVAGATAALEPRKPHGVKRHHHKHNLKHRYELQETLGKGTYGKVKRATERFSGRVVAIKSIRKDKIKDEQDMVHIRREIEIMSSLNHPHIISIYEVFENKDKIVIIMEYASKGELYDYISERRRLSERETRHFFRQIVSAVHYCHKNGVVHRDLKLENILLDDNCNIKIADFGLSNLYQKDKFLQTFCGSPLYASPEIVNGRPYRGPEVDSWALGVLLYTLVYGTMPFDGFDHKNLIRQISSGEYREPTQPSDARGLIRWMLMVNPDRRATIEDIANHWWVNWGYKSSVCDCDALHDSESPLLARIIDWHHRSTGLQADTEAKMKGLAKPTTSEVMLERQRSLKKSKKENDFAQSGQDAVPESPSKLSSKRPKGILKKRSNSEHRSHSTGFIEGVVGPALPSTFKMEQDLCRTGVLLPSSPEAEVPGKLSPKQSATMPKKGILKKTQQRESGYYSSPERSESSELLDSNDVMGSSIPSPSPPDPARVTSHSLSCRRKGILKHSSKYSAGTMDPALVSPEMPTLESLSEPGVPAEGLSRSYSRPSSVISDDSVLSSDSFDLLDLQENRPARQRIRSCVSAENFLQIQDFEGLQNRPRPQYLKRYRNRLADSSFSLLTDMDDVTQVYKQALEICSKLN
Protocol: Activity test was carried out using the kit from Reaction Biology (CAT #: ARK5/NUAK1). The test uses enzyme Human ARK5/NUAK1 and the substrate is the peptide […] (SEQ ID NO: 1), 20 μM and ATP 10 μM. Other reagents are the following: Base Reaction buffer; 20 mM Hepes (pH 7.5), 10 mM MgCl2, 1 mM EGTA, 0.02% Brij35, 0.02 mg/ml BSA, 0.1 mM Na3VO4, 2 mM DTT, 1% DMSO.
The reaction was carried out following the instructions of manufacturer. Briefly, kinase/substrate pairs were prepared in reaction buffer. Compounds were delivered into the reaction, followed 20 minutes later by addition of a mixture of ATP (Sigma, St. Louis Mo.) and ^33P ATP (Perkin Elmer, Waltham Mass.) to a final concentration of 10 μM. Reactions were carried out at room temperature for 120 min, followed by spotting of the reactions onto P81 ion exchange filter paper (Whatman Inc., Piscataway, N.J.). Unbound phosphate was removed by extensive washing of filters in 0.75% phosphoric acid. […] IC50 values and curve fits were obtained using Prism (GraphPad Software).

JAK1 = target: T3, JAK1 (Homo sapiens, UniProt P23458); assay: Functional assay of protein Janus kinases (Caliper mobility shift), JAK1; settings: ATP 100 μM, incubation 150 min; read-out: JAK1 enzymatic activity (IC50) score
T3 construct: purchased Carna Biosciences 08-144
T3 sequence (P23458 850-1154 limits assumed): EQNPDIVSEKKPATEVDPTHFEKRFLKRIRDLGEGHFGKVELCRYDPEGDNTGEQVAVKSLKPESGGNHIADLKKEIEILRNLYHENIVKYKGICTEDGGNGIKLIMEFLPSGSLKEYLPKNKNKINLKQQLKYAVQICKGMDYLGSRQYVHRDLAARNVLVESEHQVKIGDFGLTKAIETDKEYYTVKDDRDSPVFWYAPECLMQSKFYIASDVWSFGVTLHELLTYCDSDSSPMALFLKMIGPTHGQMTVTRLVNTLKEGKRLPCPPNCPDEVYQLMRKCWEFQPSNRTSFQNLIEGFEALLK
Protocol: as §1, §2

JAK3 = target: T4, JAK3 (Homo sapiens, UniProt P52333); assay: Functional assay of protein Janus kinases (Caliper mobility shift), JAK3; settings: ATP 8 μM, incubation 30 min; read-out: JAK3 enzymatic activity (IC50) score
T4 construct: purchased Carna Biosciences 08-046
T4 sequence (P52333 795-1124 limits assumed): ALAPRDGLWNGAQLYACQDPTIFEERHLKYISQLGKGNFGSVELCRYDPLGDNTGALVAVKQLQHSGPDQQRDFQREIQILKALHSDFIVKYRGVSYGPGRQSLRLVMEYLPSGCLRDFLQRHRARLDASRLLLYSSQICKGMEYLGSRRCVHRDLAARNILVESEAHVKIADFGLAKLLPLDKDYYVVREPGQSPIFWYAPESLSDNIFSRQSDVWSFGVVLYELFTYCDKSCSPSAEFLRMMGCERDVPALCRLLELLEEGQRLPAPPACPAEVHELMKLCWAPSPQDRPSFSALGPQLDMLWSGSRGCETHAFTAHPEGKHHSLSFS
Protocol: as §1, §2

JAK2 = target: T5, JAK2 (Homo sapiens, UniProt O60674); assay: Functional assay of protein Janus kinases (Caliper mobility shift), JAK2; settings: ATP 300 μM, incubation 30 min; read-out: JAK2 enzymatic activity (IC50) score
T5 construct: purchased Carna Biosciences 08-045
T5 sequence (O60674 826-1132 limits assumed): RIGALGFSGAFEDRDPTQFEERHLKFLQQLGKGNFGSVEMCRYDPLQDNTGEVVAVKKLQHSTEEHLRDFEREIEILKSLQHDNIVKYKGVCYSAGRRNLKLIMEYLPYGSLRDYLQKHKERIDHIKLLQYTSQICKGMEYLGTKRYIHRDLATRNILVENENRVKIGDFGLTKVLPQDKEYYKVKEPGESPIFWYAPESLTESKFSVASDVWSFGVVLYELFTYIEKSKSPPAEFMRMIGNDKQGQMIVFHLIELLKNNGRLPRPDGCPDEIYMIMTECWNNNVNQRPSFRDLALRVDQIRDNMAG
Protocol: as §1, §2

IC50 (TYK2) | IC50 (Human ARK5/NUAK1) | IC50 (JAK1) | IC50 (JAK3) | IC50 (JAK2) | SMILES
< 0.1 µM | < 0.1 µM | > 1 µM | < 0.1 µM | > 1 µM | CN1CCN(c2ccc3nc4c(C(=O)NC5CCCCC5)cccn4c(=O)c3c2)CC1 [Example 36, N-cyclohexyl-2-(4-methylpiperazin-1-yl)-11-oxo-11H-pyrido[2,1-b]quinazoline-6-carboxamide]
< 0.1 µM | < 0.1 µM | > 1 µM | < 0.1 µM | > 1 µM | O=C(NC1CCCCC1)c1cccn2c(=O)c3cc(N4CCOCC4)ccc3nc12 [Example 38, N-cyclohexyl-2-morpholino-11-oxo-11H-pyrido[2,1-b]quinazoline-6-carboxamide]
0.1 to 1 µM | – | > 1 µM | 0.1 to 1 µM | > 1 µM | O=C(NC1CCCCC1)c1cccn2c(=O)c3cc(Br)ccc3nc12 [Example 26, 2-bromo-N-cyclohexyl-11-oxo-11H-pyrido[2,1-b]quinazoline-6-carboxamide]
< 0.1 µM | < 0.1 µM | > 1 µM | < 0.1 µM | > 1 µM | O=C(NC1CCCCC1)c1cccn2c(=O)c3cc(C4CC4)ccc3nc12 [Example 1, N-cyclohexyl-2-cyclopropyl-11-oxo-11H-pyrido[2,1-b]quinazoline-6-carboxamide]
< 0.1 µM | – | > 1 µM | 0.1 to 1 µM | > 1 µM | O=C(NC1CCCC1)c1cccn2c(=O)c3cc(O)ccc3nc12 [Example 18, N-cyclopentyl-2-hydroxy-11-oxo-11H-pyrido[2,1-b]quinazoline-6-carboxamide]

Further lines, the compound ahead of its results:

SMILES | IC50 (TYK2) | IC50 (Human ARK5/NUAK1) | IC50 (JAK1) | IC50 (JAK3) | IC50 (JAK2)
O=C(NC1CCCCC1)c1cccn2c(=O)c3cc(-c4ccc(F)cc4)ccc3nc12 [Example 29, N-cyclohexyl-2-(4-fluorophenyl)-11-oxo-11H-pyrido[2,1-b]quinazoline-6-carboxamide] | > 1 µM | < 0.1 µM | > 1 µM | 0.1 to 1 µM | > 1 µM
O=C(NC1CCCC1)c1cccn2c(=O)c3cc(C4CC4)ccc3nc12 [Example 2, N-cyclopentyl-2-cyclopropyl-11-oxo-11H-pyrido[2,1-b]quinazoline-6-carboxamide] | < 0.1 µM | < 0.1 µM | > 1 µM | < 0.1 µM | > 1 µM
O=C(NC1CCCCC1)c1cccn2c(=O)c3cc(-c4ccncc4)ccc3nc12 [Example 33, N-cyclohexyl-11-oxo-2-(pyridin-4-yl)-11H-pyrido[2,1-b]quinazoline-6-carboxamide] | < 0.1 µM | < 0.1 µM | > 1 µM | < 0.1 µM | > 1 µM
O=C(N[C@H]1CC[C@H](O)CC1)c1cccn2c(=O)c3cc(C4CC4)ccc3nc12 [Example 7, 2-cyclopropyl-N-((1R,4R)-4-hydroxycyclohexyl)-11-oxo-11H-pyrido[2,1-b]quinazoline-6-carboxamide] | 0.1 to 1 µM | – | > 1 µM | < 0.1 µM | > 1 µM
O=C(NC1CCCC1)c1cccn2c(=O)c3cc(Br)ccc3nc12 [Example 25, 2-bromo-N-cyclopentyl-11-oxo-11H-pyrido[2,1-b]quinazoline-6-carboxamide] | < 0.1 µM | – | > 1 µM | < 0.1 µM | > 1 µM
COc1ccc2nc3c(C(=O)NC4CCCCC4)cccn3c(=O)c2c1 [Example 20, N-cyclohexyl-2-methoxy-11-oxo-11H-pyrido[2,1-b]quinazoline-6-carboxamide] | < 0.1 µM | < 0.1 µM | – | < 0.1 µM | –
O=C(N[C@@H]1CCCC[C@@H]1O)c1cccn2c(=O)c3cc(C4CC4)ccc3nc12 [Example 11, 2-cyclopropyl-N-((1R,2S)-2-hydroxycyclohexyl)-11-oxo-11H-pyrido[2,1-b]quinazoline-6-carboxamide] | 0.1 to 1 µM | – | > 1 µM | < 0.1 µM | > 1 µM
O=C(NC1CCOC1)c1cccn2c(=O)c3cc(C4CC4)ccc3nc12 (stereo not shown) [Example 14, 2-cyclopropyl-11-oxo-N-(tetrahydrofuran-3-yl)-11H-pyrido[2,1-b]quinazoline-6-carboxamide] | < 0.1 µM | – | > 1 µM | 0.1 to 1 µM | > 1 µM
O=C(N[C@H]1CCCC[C@@H]1O)c1cccn2c(=O)c3cc(C4CC4)ccc3nc12 [Example 12, 2-cyclopropyl-N-((1S,2S)-2-hydroxycyclohexyl)-11-oxo-11H-pyrido[2,1-b]quinazoline-6-carboxamide] | 0.1 to 1 µM | – | > 1 µM | 0.1 to 1 µM | > 1 µM
O=C(N[C@H]1CCCC[C@H]1O)c1cccn2c(=O)c3cc(-c4ccncc4)ccc3nc12 [Example 34, N-((1S,2R)-2-hydroxycyclohexyl)-11-oxo-2-(pyridin-4-yl)-11H-pyrido[2,1-b]quinazoline-6-carboxamide] | 0.1 to 1 µM | – | > 1 µM | 0.1 to 1 µM | > 1 µM
O=C(NC1CCCCC1O)c1cccn2c(=O)c3cc(C4CC4)ccc3nc12 (stereo not shown) [Example 8, 2-cyclopropyl-N-(2-hydroxycyclohexyl)-11-oxo-11H-pyrido[2,1-b]quinazoline-6-carboxamide] | < 0.1 µM | – | > 1 µM | 0.1 to 1 µM | > 1 µM
CN1CCC(NC(=O)c2cccn3c(=O)c4cc(C5CC5)ccc4nc23)CC1 [Example 3, 2-cyclopropyl-N-(1-methylpiperidin-4-yl)-11-oxo-11H-pyrido[2,1-b]quinazoline-6-carboxamide] | > 1 µM | – | > 1 µM | 0.1 to 1 µM | > 1 µM
